Reference: patent US10988477B2 (Merck Patent GmbH, priority 2018, dated 2021)

How the values were obtained:
GCN2 kinase = GCN2 kinase (Homo sapiens, UniProt Q9P2K8); assay: GCN2 enzyme inhibition assay (Transcreener ADP2 fluorescence polarization); format: biochemical; settings: compounds of Formula II; 280 μM ATP, 4 nM GCN2 kinase
Outline: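 Run at 25 °C in 25 mM Tris-HCl pH 7.5, 50 mM NaCl, 10 mM MgCl2, 1 mM DTT with 4 nM GCN2, 280 μM ATP and 200 μM (RS)7 peptide; compound (0–8 μM final) preincubated 10 min, reaction 1 h. ADP read by antibody/tracer FP; IC50 and Ki(app) from tight-binding fit.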

[1] = molecular target: intracellular GCN2 (phosphorylation of the GCN2 substrate eIF2α) (Homo sapiens, UniProt Q9P2K8); assay: GCN2 cellular inhibition assay (AlphaScreen SureFire P-eIF2α Ser51, borrelidin-treated U2OS cells); format: cell-based; settings: compounds of Formula II; biomarker assay, phosphorylated eIF2α Ser51 in borrelidin-treated U2OS cells
Outline: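 U2OS cells adhered overnight, then treated with compounds (4-fold serial dilutions from 40 μM final) plus borrelidin 10 μM final for 1 h at 37 °C. Lysate eIF2α Ser51 phosphorylation measured by AlphaScreen SureFire. Percent inhibition calculated relative to borrelidin-only wells.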

Sequence of intracellular GCN2 (phosphorylation of the GCN2 substrate eIF2α) (Q9P2K8 whole entry): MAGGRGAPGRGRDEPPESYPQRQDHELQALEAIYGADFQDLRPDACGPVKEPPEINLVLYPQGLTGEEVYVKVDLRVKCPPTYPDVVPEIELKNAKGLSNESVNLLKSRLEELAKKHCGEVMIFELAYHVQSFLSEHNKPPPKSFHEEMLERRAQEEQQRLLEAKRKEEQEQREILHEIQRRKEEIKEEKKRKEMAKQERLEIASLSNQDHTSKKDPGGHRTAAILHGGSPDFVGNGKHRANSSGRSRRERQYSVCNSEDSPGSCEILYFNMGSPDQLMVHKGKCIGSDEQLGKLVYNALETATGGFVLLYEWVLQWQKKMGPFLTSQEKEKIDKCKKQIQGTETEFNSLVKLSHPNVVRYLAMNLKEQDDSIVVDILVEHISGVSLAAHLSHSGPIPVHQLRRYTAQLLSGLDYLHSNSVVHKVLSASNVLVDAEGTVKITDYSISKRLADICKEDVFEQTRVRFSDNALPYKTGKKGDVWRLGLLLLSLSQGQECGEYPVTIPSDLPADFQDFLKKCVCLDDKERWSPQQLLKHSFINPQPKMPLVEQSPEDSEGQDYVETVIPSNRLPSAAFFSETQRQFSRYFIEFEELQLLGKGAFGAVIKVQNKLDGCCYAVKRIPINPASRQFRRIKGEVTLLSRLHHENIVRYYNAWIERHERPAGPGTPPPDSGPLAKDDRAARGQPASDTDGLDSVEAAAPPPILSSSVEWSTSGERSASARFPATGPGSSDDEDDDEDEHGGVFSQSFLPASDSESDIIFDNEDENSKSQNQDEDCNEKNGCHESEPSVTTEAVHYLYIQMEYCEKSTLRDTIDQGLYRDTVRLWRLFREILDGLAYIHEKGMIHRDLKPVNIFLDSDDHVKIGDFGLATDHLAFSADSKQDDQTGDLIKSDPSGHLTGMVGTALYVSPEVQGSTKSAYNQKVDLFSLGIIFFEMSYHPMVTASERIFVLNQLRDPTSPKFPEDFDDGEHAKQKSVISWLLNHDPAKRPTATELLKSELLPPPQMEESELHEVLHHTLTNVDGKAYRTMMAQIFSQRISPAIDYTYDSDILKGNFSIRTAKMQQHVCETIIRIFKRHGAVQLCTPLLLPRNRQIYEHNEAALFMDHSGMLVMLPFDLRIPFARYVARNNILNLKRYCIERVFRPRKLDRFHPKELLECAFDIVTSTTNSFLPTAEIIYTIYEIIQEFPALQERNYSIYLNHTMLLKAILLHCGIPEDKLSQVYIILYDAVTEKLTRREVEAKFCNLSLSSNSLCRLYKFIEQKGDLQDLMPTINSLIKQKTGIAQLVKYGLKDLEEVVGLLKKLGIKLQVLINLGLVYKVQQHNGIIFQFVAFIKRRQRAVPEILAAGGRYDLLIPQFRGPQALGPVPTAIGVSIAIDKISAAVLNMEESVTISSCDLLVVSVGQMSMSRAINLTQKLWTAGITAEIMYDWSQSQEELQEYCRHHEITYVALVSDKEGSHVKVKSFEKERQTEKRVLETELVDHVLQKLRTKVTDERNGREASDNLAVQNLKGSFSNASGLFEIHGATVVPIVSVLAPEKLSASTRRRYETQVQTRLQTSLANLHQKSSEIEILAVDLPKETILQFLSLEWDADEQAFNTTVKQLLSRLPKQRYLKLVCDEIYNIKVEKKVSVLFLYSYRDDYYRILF
Sequence of GCN2 kinase (Q9P2K8 whole entry): as above

Row | SMILES | Ki (GCN2 kinase) | IC50 [1]
1 | FC(F)c1ccc2ncc(-c3ccnc(N4CCOC(c5cn[nH]c5)C4)c3)n2n1 (stereo not shown) [II-108, 4-(4-(6-(Difluoromethyl)imidazo[1,2-b]pyridazin-3-yl)pyridin-2-yl)-2-(1H-pyrazol-4-yl)morpholine] | 10 to 1000 nM | 500 to 5000 nM
2 | CS(=O)(=O)NC[C@@H]1CN(c2ccnc(-c3cnc4ccc(C(F)F)nn34)c2)CCO1 [II-110, (S)—N-((4-(2-(6-(Difluoromethyl)imidazo[1,2-b]pyridazin-3-yl)pyridin-4-yl)morpholin-2-yl)methyl)methanesulfonamide] | < 10 nM | < 500 nM
3 | CS(=O)(=O)NC[C@H]1CCCN(c2cc(-c3cnc4ccc(C(F)F)nn34)cc(O)n2)C1 [II-111, (S)—N-((1-(4-(6-(Difluoromethyl)imidazo[1,2-b]pyridazin-3-yl)-6-oxo-1,6-dihydropyridin-2-yl)piperidin-3-yl)methyl)methanesulfonamide] | < 10 nM | 500 to 5000 nM
4 | CS(=O)(=O)NCC1CN(c2cc(-c3cnc4ccc(C(F)F)nn34)ncn2)CCC1O (stereo not shown) [II-112, N-((1-(6-(6-(Difluoromethyl)imidazo[1,2-b]pyridazin-3-yl)pyrimidin-4-yl)-4-hydroxypiperidin-3-yl)methyl)methanesulfonamide] | < 10 nM | 500 to 5000 nM
5 | CC(C)(NS(C)(=O)=O)C1CCCN(c2cc(-c3cnc4ccc(C(F)F)nn34)ccn2)C1 (stereo not shown) [II-114, N-(2-(1-(4-(6-(Difluoromethyl)imidazo[1,2-b]pyridazin-3-yl)pyridin-2-yl)piperidin-3-yl)propan-2-yl)methanesulfonamide] | 10 to 1000 nM | > 5000 nM
6 | CC1(CNS(C)(=O)=O)CCCN(c2cc(-c3cnc4ccc(C(F)F)nn34)ccn2)C1 (stereo not shown) [II-115, N-((1-(4-(6-(Difluoromethyl)imidazo[1,2-b]pyridazin-3-yl)pyridin-2-yl)-3-methylpiperidin-3-yl)methyl)methanesulfonamide] | 10 to 1000 nM | 500 to 5000 nM
7 | COc1cc(-c2cnc3ccc(C(F)F)nn23)cc(N2CCC[C@H](CNS(C)(=O)=O)C2)n1 [II-120, (S)—N-((1-(4-(6-(Difluoromethyl)imidazo[1,2-b]pyridazin-3-yl)-6-methoxypyridin-2-yl)piperidin-3-yl)methyl)methanesulfonamide] | < 10 nM | > 5000 nM
8 | CS(=O)(=O)NC[C@@H]1CN(c2cc(-c3cnc4ccc(C(F)F)nn34)ccn2)CCO1 [II-121, N-[[(2S)-4-[4-[6-(Difluoromethyl)imidazo[1,2-b]pyridazin-3-yl]-2-pyridyl]morpholin-2-yl]methyl]methanesulfonamide] | < 10 nM | < 500 nM
9 | CS(=O)(=O)NCC1CCN(c2cc(-c3cnc4ccc(C(F)F)nn34)ccn2)C1 (stereo not shown) [II-123, N-((1-(4-(6-(Difluoromethyl)imidazo[1,2-b]pyridazin-3-yl)pyridin-2-yl)pyrrolidin-3-yl)methyl)methanesulfonamide] | 10 to 1000 nM | 500 to 5000 nM
10 | CS(=O)(=O)NOC1CCCN(c2cc(-c3cnc4ccc(C(F)F)nn34)ccn2)C1 (stereo not shown) [II-124, N-((1-(4-(6-(Difluoromethyl)imidazo[1,2-b]pyridazin-3-yl)pyridin-2-yl)piperidin-3-yl)oxy)methanesulfonamide] | < 10 nM | 500 to 5000 nM
11 | CS(=O)(=O)NCC1CCCN(c2ccnc(-c3cnc4ccc(C(F)F)nn34)c2)C1 (stereo not shown) [II-125, N-((1-(2-(6-(Difluoromethyl)imidazo[1,2-b]pyridazin-3-yl)pyridin-4-yl)piperidin-3-yl)methyl)methanesulfonamide] | < 10 nM | < 500 nM
12 | Cc1cc(-c2cnc3ccc(C(F)F)nn23)cc(N2CCCC(CNS(C)(=O)=O)C2)n1 (stereo not shown) [II-129, N-((1-(4-(6-(Difluoromethyl)imidazo[1,2-b]pyridazin-3-yl)-6-methylpyridin-2-yl)piperidin-3-yl)methyl)methanesulfonamide] | < 10 nM | 500 to 5000 nM

The next lines start with the values.

Row | Ki (GCN2 kinase) | IC50 [1] | SMILES
13 | 10 to 1000 nM | < 500 nM | FC(F)c1ccc2ncc(-c3ccnc(N4CCOC(c5cn[nH]c5)C4)c3)n2n1 (stereo not shown) [II-107, 4-(4-(6-(Difluoromethyl)imidazo[1,2-b]pyridazin-3-yl)pyridin-2-yl)-2-(1H-pyrazol-4-yl)morpholine]
14 | 10 to 1000 nM | 500 to 5000 nM | CN(CC1CCCN(c2cc(-c3cnc4ccc(C(F)F)nn34)ccn2)C1)S(C)(=O)=O (stereo not shown) [II-109, N-((1-(4-(6-(Difluoromethyl)imidazo[1,2-b]pyridazin-3-yl)pyridin-2-yl)piperidin-3-yl)methyl)-N-methylmethanesulfonamide]
15 | 10 to 1000 nM | 500 to 5000 nM | OCCn1cc(-c2cc(-c3cnc4ccc(C(F)F)nn34)ccn2)cn1 [II-113, 2-(4-(4-(6-(Difluoromethyl)imidazo[1,2-b]pyridazin-3-yl)pyridin-2-yl)-1H-pyrazol-1-yl)ethanol]
16 | < 10 nM | 500 to 5000 nM | CNc1cc(-c2cnc3ccc(C(F)F)nn23)cc(N2CCCC(CNS(C)(=O)=O)C2)n1 (stereo not shown) [II-116, N-((1-(4-(6-(Difluoromethyl)imidazo[1,2-b]pyridazin-3-yl)-6-(methylamino)pyridin-2-yl)piperidin-3-yl)methyl)methanesulfonamide]
17 | 10 to 1000 nM | 500 to 5000 nM | CS(=O)(=O)NCC1CCCN(c2cc(-c3cnc4ccc(C(F)F)nn34)cnc2C#N)C1 (stereo not shown) [II-117, N-((1-(2-Cyano-5-(6-(difluoromethyl)imidazo[1,2-b]pyridazin-3-yl)pyridin-3-yl)piperidin-3-yl)methyl)methanesulfonamide]
18 | 10 to 1000 nM | 500 to 5000 nM | CC1CN(c2cc(-c3cnc4ccc(C(F)F)nn34)ccn2)CC(CNS(C)(=O)=O)O1 (stereo not shown) [II-118, N-((4-(4-(6-(Difluoromethyl)imidazo[1,2-b]pyridazin-3-yl)pyridin-2-yl)-6-methylmorpholin-2-yl)methyl)methanesulfonamide]
19 | < 10 nM | < 500 nM | CC1CN(c2cc(-c3cnc4ccc(C(F)F)nn34)ccn2)CC(CNS(C)(=O)=O)O1 (stereo not shown) [II-119, N-((4-(4-(6-(Difluoromethyl)imidazo[1,2-b]pyridazin-3-yl)pyridin-2-yl)-6-methylmorpholin-2-yl)methyl)methanesulfonamide]
20 | < 10 nM | 500 to 5000 nM | CS(=O)(=O)NCC1CCCN(c2cc(-c3cnc4ccc(C(F)F)nn34)cc(F)n2)C1 (stereo not shown) [II-122, N-((1-(4-(6-(Difluoromethyl)imidazo[1,2-b]pyridazin-3-yl)-6-fluoropyridin-2-yl)piperidin-3-yl)methyl)methanesulfonamide]
21 | 10 to 1000 nM | > 5000 nM | CS(=O)(=O)N1CC2(CN(c3cc(-c4cnc5ccc(C(F)F)nn45)ccn3)CCO2)C1 [II-126, 8-(4-(6-(Difluoromethyl)imidazo[1,2-b]pyridazin-3-yl)pyridin-2-yl)-2-(methylsulfonyl)-5-oxa-2,8-diazaspiro[3.5]nonane]
22 | 10 to 1000 nM | 500 to 5000 nM | CC(=O)N1CCN(c2ccnc(-c3cnc4ccc(C(F)F)nn34)c2)CC1 [II-127, 1-(4-(2-(6-(Difluoromethyl)imidazo[1,2-b]pyridazin-3-yl)pyridin-4-yl)piperazin-1-yl)ethanone]
23 | 10 to 1000 nM | 500 to 5000 nM | CS(=O)(=O)CCC1CCCN(c2cc(-c3cnc4ccc(C(F)F)nn34)ccn2)C1 (stereo not shown) [II-128, 6-(Difluoromethyl)-3-(2-(3-(2-(methylsulfonyl)ethyl)piperidin-1-yl)pyridin-4-yl)imidazo[1,2-b]pyridazine]
